Experimental data reported in article PMC10206040, “Identification of novel anti-amoebic pharmacophores from kinase inhibitor chemotypes” (Frontiers in Microbiology, 2023).
Read-outs that look alike come from different tables or passages of the source.

Tests used:
[1] = test system: Acanthamoeba castellanii T4 isolate (ATCC 50370) trophozoites; experiment: CellTiter-Glo 2.0 trophocidal assay, A. castellanii; format: cell-based; conditions: read-out: Acanthamoeba castellanii EC50 ± SD
Source text: This isolate was purchased from American Type Culture Collection (ATCC). […] For sub-culturing, cells were mechanically harvested to detach the cells from the culture flasks.

[2] = test system: Naegleria fowleri (ATCC 30215) trophozoites; experiment: microbe, parasite or virus in culture
Procedure: Trophozoites were routinely grown axenically at 34°C, 5% CO2, in Nelson’s complete medium (NCM) in non-vented 75 cm^2 tissue culture flasks (Olympus), until the cells were 80–90% confluent. For sub-culturing, cells were placed on ice to detach the cells from the culture flasks. […] Complete NCM media is prepared by the addition of 10% fetal bovine serum (FBS) and 100 U/mL penicillin, and 100 μg/mL streptomycin antibiotics.
Trophozoites were routinely cultured as described above and only logarithmic trophozoites were used.
All assays were incubated at each of the parasites’ representative growth temperatures, described above, for 72 h. At the 72-h time point, 25 μL of CellTiter-Glo 2.0 reagent was added to all wells of the 96-well plates by hand. The plates were protected from light and contents were mixed using an orbital shaker at 300 rpm at room temperature for 2 min to induce cell lysis. After shaking, the plates were equilibrated at room temperature for 10 min to stabilize the luminescent signal. The ATP luminescent signal (relative light units; RLUs) were measured […] with a SpectraMax I3X plate reader (Molecular Devices, Sunnyvale, CA, United States). […] Values reported are from a minimum of three biological replicates with standard deviation.

[3] = test system: Balamuthia mandrillaris (CDC:V039; ATCC 50209) trophozoites; experiment: CellTiter-Glo 2.0 trophocidal assay, B. mandrillaris; format: cell-based; conditions: Balamuthia mandrillaris, ATCC50209, 72 h, read-out: Balamuthia mandrillaris EC50 ± SD
Source text: For sub-culturing, 0.25% Trypsin–EDTA (Gibco) cell detachment reagent was used to detach the cells from the culture flasks.

[4] = Human fetal lung fibroblast (MRC5) cell cytotoxicity assay (resazurin); conditions: human
Procedure: (§1) Intermediate plates were made as described, adding 95 μL of DMEM complete media to 5 μL of compound per well setting a 5% DMSO amount. Log-phase MRC5 cells were removed from a T-75 TC flask using TrypLE® Express (Thermo®) and dispersed by gentle pipetting. Cell density was adjusted to working concentration in prewarmed DMEM medium: 25,000 cells in 90 μL of culture were plated in 96-well transparent Nunclon plates and allowed to settle for 24 h at 37°C and 5% CO2. […] Plates were incubated for 48 h at 37°C and 5% CO2. At 4 h prior to fluorescence measurement, 20 μL of 500 μM resazurin solution was added.
(§2) A four-parameter equation was used to fit the dose–response curves and determination of EC50 by SigmaPlot ® 13.0 software. Assays were performed in duplicate at least twice for positive compounds, to achieve a minimal […] per dose response.

MRC5 cells = experiment: as above; conditions: Table S2
Procedure: as §1, §2

L6 cells = experiment: Rat skeletal muscle cell line (L6) cytotoxicity assay (resazurin); conditions: Table S2; in µM
Procedure: One hundred microliters (100 μL) per well of culture medium containing the compounds and controls were added to L6 cells previously cultured (4 × 10^3 L6 cells per well). After 72 h at 37°C the medium was exchanged, and the viable cell number was determined by resazurin (Sigma–Aldrich) reduction. 20 μl of resazurin (1.1 mg/ml) was added to each well and incubated in the dark for 2 h at 37°C.

THP-1 = experiment: Cytotoxicity assay in THP-1 (MTT); format: cell-based; conditions: Table S2, 72 h, maximal concentration 50 μM
Procedure: Cytotoxicity assay in TH P-1. Cellular toxicity of all compounds was determined using the colorimetric MTT-based assay after incubation at 37 °C for 72 h in the presence of increasing concentrations of compounds (final maximal concentration was 50 μM in 0.5% DMSO per well) [ 1] . The results are expressed […]
cells. Assays were performed in duplicate at least twice to achieve a minimal n=3 per dose response. […]
Cytotoxicity assay in THP-1. Cellular toxicity of all compounds was determined using the colorimetric MTT-based assay after incubation at 37 °C for 72 h in the presence of increasing concentrations of compounds (final maximal concentration was 50 μM in 0.5% DMSO per well). […] Assays were performed in duplicate at least twice to achieve a minimal n=3 per dose response.

[5] = Acanthamoeba castellanii, ATCC50370, 72 h
[6] = Naegleria fowleri, 72 h, read-out: Naegleria fowleri EC50 ± SD, logarithmic trophozoites, 72 h, n = 3 (converted)
[7] = MRC5 cells (human fetal lung fibroblasts)
[8] = read-out: Naegleria fowleri EC50 ± SD, logarithmic trophozoites, 72 h, n = 3
[9] = Naegleria fowleri, ATCC30215, 72 h, read-out: Naegleria fowleri EC50 ± SD, logarithmic trophozoites, 72 h, n = 3 (converted)
[10] = Acanthamoeba castellanii, ATCC50370, 72 h, logarithmic trophozoites, 72 h, n = 3
[11] = logarithmic trophozoites, 72 h, n = 3

| EC50 [2, 9] | SMILES | EC50 [2, 6] | EC50 [3] | CC50 at 48 h [4, 7] | further results |
| --- | --- | --- | --- | --- | --- |
|  | c1ccc(Nc2nccc(-c3cnn4ccccc34)n2)cc1 [Compound 2a] | 0.94 ± 0.17 µM | 4.2 ± 0.6 µM | > 50 µM | EC50 [1, 5]: 13 ± 6.9 µM |
|  | N#Cc1cccc(Nc2nccc(-c3c(C4CC4)nn4nc(N5CCOCC5)ccc34)n2)c1 [Compound 2c] | 3.5 ± 0.7 µM |  | > 50 µM | EC50 [1, 5]: 5.9 ± 0.17 µM |
|  | Cc1cc(-c2cnn3ncccc23)nc(Nc2cccc(C#N)c2)n1 [Compound 2e] |  |  | > 50 µM | EC50 [1, 5]: > 20 µM |
|  | N#Cc1cccc(Nc2cccc(-c3cnn4ncccc34)n2)c1 [Compound 2f] |  | > 20 µM | > 50 µM | EC50 [1, 5]: > 20 µM |
|  | N#Cc1cccc(Nc2cccc(-c3cnn4ncccc34)c2)c1 [Compound 2g] |  | > 20 µM | 19 ± 1 µM | EC50 [1, 5]: > 20 µM |
|  | COc1cccc(Nc2nccc(-c3cnn4ccccc34)n2)c1 [Compound 2h] |  | 3.3 ± 0.97 µM | > 50 µM |  |
|  | COc1ccc(-c2nn3ncccc3c2-c2ccnc(Nc3ccccc3)n2)cc1 [Compound 2i] | 17 ± 3.5 µM |  | > 50 µM |  |
|  | COc1cccc(Nc2nccc(-c3cnn4nc(N5CCOCC5)ccc34)n2)c1 [Compound 2j] |  | 4.9 ± 1.6 µM | > 50 µM |  |
|  | OC1CCC(Nc2nccc(-c3cnn4nc(N5CCOCC5)ccc34)n2)CC1 (stereo not shown) [Compound 2k] | ≤ 14 µM | > 20 µM | > 50 µM | EC50 [2, 8]: 7.5 ± 2.5 µM |
|  | COCc1nn2ncccc2c1-c1ccnc(Nc2cccc(C#N)c2)n1 [Compound 2l] |  |  | > 50 µM | EC50 [2, 8]: ≤ 14 µM; EC50 ([2]; read-out: Naegleria fowleri EC50 ± SD, logarithmic trophozoites, 72 h, n = 3, listed as 2 l): 1.1 ± 0.16 µM |
|  | CC(O)c1nn2ncccc2c1-c1ccnc(Nc2cccc(C#N)c2)n1 (stereo not shown) [Compound 2m] | 17 ± 0.76 µM |  | > 50 µM |  |
|  | CC(C)c1nn2ncccc2c1-c1ccnc(Nc2cccc(C#N)c2)n1 [Compound 2n] | 1.3 ± 0.33 µM |  | 33 ± 2 µM |  |
|  | N#Cc1cccc(Nc2nccc(-c3c(C4CC4)nn4ncccc34)n2)c1 [Compound 2o] | 9.6 ± 6.6 µM |  | > 50 µM |  |
|  | c1cnn2ncc(-c3ccnc(NC4CCCCC4)n3)c2c1 [Compound 2p] | 1.4 ± 0.76 µM | 7.5 ± 3.1 µM | > 50 µM |  |
| 12 ± 7.8 µM | Fc1ccc(Nc2nccc(-c3c(C4CC4)nn4ncccc34)n2)cc1F [Compound 2q] |  |  |  | CC50 at 48 h [4]: > 50 µM; MRC5 TC50 ± Standard Deviation (MRC5 cells; in µM): > 50 |
|  | c1cncc(Nc2nccc(-c3c(C4CC4)nn4ncccc34)n2)c1 [Compound 2r] | 16 ± 3.7 µM | 13 ± 7.5 µM | > 50 µM |  |

| EC50 [2, 9] | SMILES | EC50 [2, 6] | EC50 [3] | CC50 at 48 h [4, 7] | further results |
| --- | --- | --- | --- | --- | --- |
|  | COc1ccc2c(-c3ccnc(NC4CCC(O)CC4)n3)cnn2n1 (stereo not shown) [Compound 2s] |  | 11 ± 4.2 µM | > 50 µM |  |
|  | c1ccc(Nc2nccc(-c3cnn4ncccc34)n2)nc1 [Compound 2t] |  | 10 ± 2.8 µM | > 50 µM |  |
|  | COc1ccc2c(-c3ccnc(NC4CCC(O)CC4)n3)c(C3CC3)nn2n1 (stereo not shown) [Compound 2u] |  | 9.4 ± 3.4 µM | > 50 µM |  |
| 15 ± 4.7 µM | Nc1c(-c2ccccn2)nc2cc(F)ccn12 [Compound 3a, 7-Fluoro-2-(pyridin-2-yl)imidazo[1,2-a]pyridin-3-amine] |  |  |  | EC50 [1, 10]: < 10 µM; EC50 [1, 11]: 6.94 ± 0.11 µM; MRC5 TC50 ± Standard Deviation (MRC5 cells): 64 µM |
| > 20 µM | COc1ccn2c(Nc3ccccc3F)c(-c3cccc(C)n3)nc2c1 [Compound 3c, N-(2-Fluorophenyl)-7-methoxy-2-(6-methylpyridin-2-yl)imidazo[1,2-a]pyridin-3-amine] |  |  |  | EC50 [1, 10]: > 20 µM; MRC5 TC50 ± Standard Deviation (MRC5 cells): 64 µM |
| > 20 µM | Fc1ccn2c(NC3CC3)c(-c3ccccn3)nc2c1 [Compound 3d, N-Cyclopropyl-7-fluoro-2-(pyridin-2-yl)imidazo[1,2-a]pyridin-3-amine] |  |  |  | EC50 [1, 10]: > 20 µM; MRC5 TC50 ± Standard Deviation (MRC5 cells): 64 µM |
| > 20 µM | COc1ccn2c(Nc3ccccc3F)c(-c3cccnc3)nc2c1 [Compound 3g, N-(2-fluorophenyl)-7-methoxy-2-(pyridin-3-yl)imidazo[1,2-a]pyridin-3-amine] |  |  |  | MRC5 TC50 ± Standard Deviation (MRC5 cells): 64 µM |
| > 20 µM | COc1ccn2c(NC(=O)c3ccccc3F)c(-c3ccccn3)nc2c1 [Compound 3h, 2-Fluoro-N-[7-methoxy-2-(pyridin-2-yl)imidazo[1,2-a]pyridin-3-yl]benzamide] |  |  |  | MRC5 TC50 ± Standard Deviation (MRC5 cells): 64 µM |
| > 20 µM | COc1ccn2c(Nc3ccccc3F)c(-c3ncccn3)nc2c1 [Compound 3i, N-(2-Fluorophenyl)-7-methoxy-2-(pyrimidin-2-yl)imidazo[1,2-a]pyridin-3-amine] |  |  |  | MRC5 TC50 ± Standard Deviation (MRC5 cells): 49 µM |
| > 20 µM | COc1ccn2c(Nc3ccccc3F)c(-c3ccncn3)nc2c1 [Compound 3j] |  |  |  | MRC5 TC50 ± Standard Deviation (MRC5 cells): 46 µM |
| > 20 µM | COc1ccn2c(NC(=O)c3ccc(F)cn3)c(-c3ccccn3)nc2c1 [Compound 3k, 5-Fluoro-N-[7-methoxy-2-(pyridin-2-yl)imidazo[1,2-a]pyridin-3-yl]pyridine-2-carboxamide] |  |  |  | MRC5 TC50 ± Standard Deviation (MRC5 cells): 64 µM |
| > 20 µM | COc1ccn2c(NC(=O)c3cccc(F)c3)c(-c3ccccn3)nc2c1 [Compound 3l, 3-Fluoro-N-[7-methoxy-2-(pyridin-2-yl)imidazo[1,2-a]pyridin-3-yl]benzamide] |  |  |  | MRC5 TC50 ± Standard Deviation (MRC5 cells): 59 µM |
| > 20 µM | O=C(N[C@H](CO)c1ccccc1)c1cc(-c2c[nH]c3ncccc23)[nH]n1 [Compound S12, (S)-N-(2-Hydroxy-1-phenylethyl)-5-(1H-pyrrolo[2,3-b]pyridin-3-yl)-1H-pyrazole-3-carboxamide] |  |  |  | EC50 [1, 10]: > 20 µM; EC50 [3, 11]: > 20 µM; MRC5 TC50 ± Standard Deviation (MRC5 cells; in µM): 42 ± 7.7; L6 TC50 ± Standard Deviation (L6 cells): > 17; THP-1 TC50 ± Standard Deviation (THP-1): 42 ± 11 |
| > 20 µM | O=C(N[C@H](CO)c1ccccc1)c1ccc(-c2c[nH]c3ncccc23)nc1 [Compound S15, (S)-N-(2-Hydroxy-1-phenylethyl)-6-(1H-pyrrolo[2,3-b]pyridin-3-yl)nicotinamide] |  |  |  | EC50 [1, 10]: > 20 µM; EC50 [3, 11]: > 20 µM; MRC5 TC50 ± Standard Deviation (MRC5 cells; in µM): > 50; L6 TC50 ± Standard Deviation (L6 cells): > 50; THP-1 TC50 ± Standard Deviation (THP-1): 26 ± 2.0 |
| 3.3 ± 1 µM | O=C1OCc2ccc(Nc3nccc(Nc4cccc5c4C(=O)NC5)n3)cc21 [Compound S20, 7-((2-((3-oxo-1,3-dihydroisobenzofuran-5-yl)amino)pyrimidin-4-yl)amino)isoindolin-1-one] |  |  |  | EC50 [1, 10]: > 20 µM; EC50 [3, 11]: > 20 µM; MRC5 TC50 ± Standard Deviation (MRC5 cells; in µM): > 50; L6 TC50 ± Standard Deviation (L6 cells): > 50; THP-1 TC50 ± Standard Deviation (THP-1): > 50 |
|  | CN(C)S(=O)(=O)c1ccc(N/N=C2\C(=O)Nc3ccccc32)cc1 [Compound S30] | > 20 µM |  |  | EC50 [1, 10]: > 20 µM; EC50 [3, 11]: > 20 µM; MRC5 TC50 ± Standard Deviation (MRC5 cells; in µM): > 50; THP-1 TC50 ± Standard Deviation (THP-1): > 50 |
